In this test the test system is Pseudomonas sp. CBR-F. Put plainly: Fluorescent response of living Pseudomonas sp. CBR-F cultures to perfluoroalkyl substances. It is filed as cell-based. The following applies: excitation 425 nm; for fluorescent response of Pseudomonas sp. CBR-F: R2A medium, 96 well plate, 12-16 hours at 30° C.; for fluorescent response of Pseudomonas sp. CBR-F / form of the fluorescence response versus concentration: emission 475 nm; for form of the fluorescence response versus concentration: log of concentration plotted against the measured fluorescence; for limit of detection: ppb (micrograms/liter), fluorescence at 475 nm. As for the experimental part:
To perform an assay, CBR-F was inoculated into medium containing Reasoner's 2A medium (R2A) diluted from a 2× stock with the test sample in a 96 well plate. Internal standards using PFOA are run each time as a calibration curve. Following incubation for a number of hours (for example, 12-16 hours at 30° C.), fluorescence was measured at 475 nm with an excitation of 425 nm after the cultures have grown with shaking at 150 rpm for 15 hours using a 96 well plate reader with fluorescent capabilities. The log of PFOA concentration is plotted against the measured fluorescence, and a linear trend is calculated. The trendline formula is used to calculate PFOA/PFOS concentrations in the sample.

The structures appear in SMILES notation.

In the case of `O=C(O)C(F)(F)C(F)(F)C(F)(F)C(F)(F)C(F)(F)C(F)(F)C(F)(F)F` [PFOA, perfluorooctanoic acid], the “fluorescent response of Pseudomonas sp. CBR-F” value was “produces fluorescence”, the “form of the fluorescence response versus concentration” value is “linear relative to the log” and the limit of detection is on record as 50 ppb.
Take `O=S(=O)(O)C(F)(F)C(F)(F)C(F)(F)C(F)(F)C(F)(F)C(F)(F)C(F)(F)C(F)(F)F` [PFOS, perfluorooctanesulfonic acid]: the “fluorescent response of Pseudomonas sp. CBR-F” value is reported as “produces fluorescence”, the “form of the fluorescence response versus concentration” value is given as “linear relative to the log” and the limit of detection worked out at 50 ppb.
